In the experiment the test system is conscious renally hypertensive rats. Description: Effect after oral administration in conscious renally hypertensive rats. Format: in vivo, rat. Particulars: 10 mg/kg. The procedure:
In addition, compounds D, E, F, G, H, M and O were tested on conscious renally hypertensive rats for their effect after oral administration using methods known from the literature.
Take `CCCc1nc2c(C)cc(N3Cc4ccccc4C3=O)cc2n1Cc1ccc(-c2ccccc2-c2nnn[nH]2)cc1` [Substance F, 4'-[[2-n-propyl-4-methyl-6-(1-oxo-isoindolin-2-yl)-benzimidazol-1-yl]-methyl]-2-(1H-tetrazol-5-yl)-biphenyl]: the hypotensive effect entry is on record as “hypotensive effect”.

For the molecule `CCCCc1nc2c(C)cc(N3C(=O)C(C)=C(C)C3=O)cc2n1Cc1ccc(-c2ccccc2C(=O)O)cc1` [Substance H, 4'-[[2-n-butyl-6-(2,3-dimethylmaleic acid imino)-4-methyl-benzimidazol-1-yl]-methyl]-biphenyl-2-carboxylic acid semihydrate], the hypotensive effect result is “hypotensive effect”. Consider `CCCc1nc2c(C)cc(-c3cn4cccnc4n3)cc2n1Cc1ccc(-c2ccccc2-c2nnn[nH]2)cc1` [Substance O, 4'-[(2-n-propyl-4-methyl-6-(imidazo[1,2-a]pyrimidin-2-yl)-benzimidazol-1-yl)-methyl]-2-(1H-tetrazol-5-yl)-biphenyl], for which the hypotensive effect result is recorded as “hypotensive effect”.

As for `CCCc1nc2c(C)cc(N3CCCCS3(=O)=O)cc2n1Cc1ccc(-c2ccccc2-c2nn[nH]n2)cc1` [Substance G, 4'-[[2-n-propyl-4-methyl-6-(butanesultam-1-yl)-benzimidazol-1-yl]-methyl]-2-(1H-tetrazol-5-yl)-biphenyl], the hypotensive effect result is “hypotensive effect”. The result for `CCCc1nc2c(C)cc(-c3nc4ccccc4n3C)cc2n1Cc1ccc(-c2ccccc2C(=O)O)cc1` [Substance D, 4'-[[2-n-propyl-4-methyl-6-(1-methylbenzimidazol-2-yl)-benzimidazol-1-yl]-methyl]-biphenyl-2-carboxylic acid] reads “hypotensive effect”; that for `CCCc1nc2c(C)cc(-c3nc4ccccc4n3C)cc2n1Cc1ccc(-c2ccccc2-c2nnn[nH]2)cc1` [Substance E, 4'-[[2-n-propyl-4-methyl-6-(1-methylbenzimidazol-2-yl)-benzimidazol-1-yl]-methyl]-2-(1H-tetrazol-5-yl)-biphenyl], “hypotensive effect”.

In the case of `Cc1cc(-c2nc3ccccc3n2C)cc2c1nc(C1CC1)n2Cc1ccc(-c2ccccc2C(=O)O)cc1` [Substance M, 4'-[(2-cyclopropyl-4-methyl-6-(1-methylbenzimidazol-2-yl)-benzimidazol-1-yl)-methyl]-biphenyl-2-carboxylic acid], the hypotensive effect result is on record as “hypotensive effect”.

These data come from patent US5614519A, “(1-(2,3 or 4-N-morpholinoalkyl)-imidazol-4-yl)-benizimidazol-1-yl-methyl]-biphenyls useful as angiotensin-II antagonists” (Karl Thomae GmbH, priority 1991, dated 1997).
